Experiment [1] addresses Calcium/calmodulin-dependent protein kinase type II subunit delta (Homo sapiens) (UniProt Q13557). The experiment can be described thus: Inhibition of CaMK2d Lys2 labeling site in human Huh-7 cell lysate at 1 uM by KiNativ Profiling analysis relative to control. The class given is subcellular.
For experiment [2], the target named is T1, Serine/threonine-protein kinase D1 (Homo sapiens) (UniProt Q15139).
T1 sequence (whole entry): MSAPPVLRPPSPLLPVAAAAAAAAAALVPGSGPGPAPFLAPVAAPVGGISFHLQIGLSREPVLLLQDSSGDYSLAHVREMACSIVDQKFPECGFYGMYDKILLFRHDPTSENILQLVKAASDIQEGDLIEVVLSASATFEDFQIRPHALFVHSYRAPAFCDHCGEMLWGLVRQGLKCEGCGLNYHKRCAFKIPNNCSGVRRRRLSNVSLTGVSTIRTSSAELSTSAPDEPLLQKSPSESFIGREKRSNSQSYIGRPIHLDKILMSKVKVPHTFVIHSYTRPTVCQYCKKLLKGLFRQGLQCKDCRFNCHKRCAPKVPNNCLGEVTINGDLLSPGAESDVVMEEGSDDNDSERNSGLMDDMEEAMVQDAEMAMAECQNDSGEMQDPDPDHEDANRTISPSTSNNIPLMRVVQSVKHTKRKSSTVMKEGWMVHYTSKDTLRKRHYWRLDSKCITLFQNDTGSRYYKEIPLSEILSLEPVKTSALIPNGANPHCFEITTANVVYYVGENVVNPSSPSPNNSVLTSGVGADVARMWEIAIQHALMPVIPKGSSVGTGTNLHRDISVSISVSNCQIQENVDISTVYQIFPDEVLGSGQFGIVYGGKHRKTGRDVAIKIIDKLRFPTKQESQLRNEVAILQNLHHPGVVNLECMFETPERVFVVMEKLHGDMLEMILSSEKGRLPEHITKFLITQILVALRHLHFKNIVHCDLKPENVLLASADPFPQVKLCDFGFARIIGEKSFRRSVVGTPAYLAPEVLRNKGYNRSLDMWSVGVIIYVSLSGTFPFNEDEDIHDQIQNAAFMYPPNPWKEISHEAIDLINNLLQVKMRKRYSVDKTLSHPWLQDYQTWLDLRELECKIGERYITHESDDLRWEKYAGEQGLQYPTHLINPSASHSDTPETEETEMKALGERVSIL
The experiment can be described thus: Inhibition of PKD1 Lys1 labeling site in human A-375 cells at 5 uM by KiNativ Profiling analysis relative to control. The class given is cell-based.

Experiment [3] has as its target Megakaryocyte-associated tyrosine-protein kinase (Homo sapiens) (UniProt P42679). The experiment can be described thus: Inhibition of CTK (unknown origin) at 1 uM by Ambit Kinomescan binding assay relative to control; values are per cent of control.
For experiment [4], the target named is Serine/threonine-protein kinase 16 (Homo sapiens) (UniProt O75716). The experiment can be described thus: Inhibition of MPSK1 Lys2 labeling site in human A-375 cells at 0.05 uM by KiNativ Profiling analysis relative to control. The class given is cell-based.
Serine/threonine-protein kinase 16 (Homo sapiens), sequence (O75716 whole entry): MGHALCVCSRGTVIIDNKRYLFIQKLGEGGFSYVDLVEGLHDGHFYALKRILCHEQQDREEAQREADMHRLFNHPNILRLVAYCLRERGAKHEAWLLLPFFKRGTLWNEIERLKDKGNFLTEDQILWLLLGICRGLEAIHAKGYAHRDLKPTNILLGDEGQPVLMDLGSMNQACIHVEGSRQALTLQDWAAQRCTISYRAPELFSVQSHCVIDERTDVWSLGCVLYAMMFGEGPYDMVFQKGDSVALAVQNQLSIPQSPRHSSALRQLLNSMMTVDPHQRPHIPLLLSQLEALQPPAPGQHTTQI
Experiment [5] addresses Uncharacterized serine/threonine-protein kinase SBK3 (Homo sapiens) (UniProt P0C264). The experiment can be described thus: Inhibition of SgK110 (unknown origin) at 1 uM by Ambit Kinomescan binding assay relative to control.
Experiment [6] concerns the target Mitogen-activated protein kinase kinase kinase 11 (Homo sapiens) (UniProt Q16584). Kind of experiment: Inhibition of MLK3 Lys2 labeling site in human A-375 cells at 0.05 uM by KiNativ Profiling analysis relative to control. The class given is cell-based.
Experiment [7] has as its target Serine/threonine-protein kinase PAK 5 (Homo sapiens) (UniProt Q9P286). The experiment can be described thus: Inhibition of PAK7 (unknown origin) at 1 uM by Ambit Kinomescan binding assay relative to control.
Experiment [8] deals with Transient receptor potential cation channel subfamily M member 6 (Homo sapiens) (UniProt Q9BX84). The experiment can be described thus: Inhibition of TRPM6 (unknown origin) at 1 uM by Ambit Kinomescan binding assay relative to control.
Transient receptor potential cation channel subfamily M member 6 (Homo sapiens), sequence (Q9BX84 whole entry): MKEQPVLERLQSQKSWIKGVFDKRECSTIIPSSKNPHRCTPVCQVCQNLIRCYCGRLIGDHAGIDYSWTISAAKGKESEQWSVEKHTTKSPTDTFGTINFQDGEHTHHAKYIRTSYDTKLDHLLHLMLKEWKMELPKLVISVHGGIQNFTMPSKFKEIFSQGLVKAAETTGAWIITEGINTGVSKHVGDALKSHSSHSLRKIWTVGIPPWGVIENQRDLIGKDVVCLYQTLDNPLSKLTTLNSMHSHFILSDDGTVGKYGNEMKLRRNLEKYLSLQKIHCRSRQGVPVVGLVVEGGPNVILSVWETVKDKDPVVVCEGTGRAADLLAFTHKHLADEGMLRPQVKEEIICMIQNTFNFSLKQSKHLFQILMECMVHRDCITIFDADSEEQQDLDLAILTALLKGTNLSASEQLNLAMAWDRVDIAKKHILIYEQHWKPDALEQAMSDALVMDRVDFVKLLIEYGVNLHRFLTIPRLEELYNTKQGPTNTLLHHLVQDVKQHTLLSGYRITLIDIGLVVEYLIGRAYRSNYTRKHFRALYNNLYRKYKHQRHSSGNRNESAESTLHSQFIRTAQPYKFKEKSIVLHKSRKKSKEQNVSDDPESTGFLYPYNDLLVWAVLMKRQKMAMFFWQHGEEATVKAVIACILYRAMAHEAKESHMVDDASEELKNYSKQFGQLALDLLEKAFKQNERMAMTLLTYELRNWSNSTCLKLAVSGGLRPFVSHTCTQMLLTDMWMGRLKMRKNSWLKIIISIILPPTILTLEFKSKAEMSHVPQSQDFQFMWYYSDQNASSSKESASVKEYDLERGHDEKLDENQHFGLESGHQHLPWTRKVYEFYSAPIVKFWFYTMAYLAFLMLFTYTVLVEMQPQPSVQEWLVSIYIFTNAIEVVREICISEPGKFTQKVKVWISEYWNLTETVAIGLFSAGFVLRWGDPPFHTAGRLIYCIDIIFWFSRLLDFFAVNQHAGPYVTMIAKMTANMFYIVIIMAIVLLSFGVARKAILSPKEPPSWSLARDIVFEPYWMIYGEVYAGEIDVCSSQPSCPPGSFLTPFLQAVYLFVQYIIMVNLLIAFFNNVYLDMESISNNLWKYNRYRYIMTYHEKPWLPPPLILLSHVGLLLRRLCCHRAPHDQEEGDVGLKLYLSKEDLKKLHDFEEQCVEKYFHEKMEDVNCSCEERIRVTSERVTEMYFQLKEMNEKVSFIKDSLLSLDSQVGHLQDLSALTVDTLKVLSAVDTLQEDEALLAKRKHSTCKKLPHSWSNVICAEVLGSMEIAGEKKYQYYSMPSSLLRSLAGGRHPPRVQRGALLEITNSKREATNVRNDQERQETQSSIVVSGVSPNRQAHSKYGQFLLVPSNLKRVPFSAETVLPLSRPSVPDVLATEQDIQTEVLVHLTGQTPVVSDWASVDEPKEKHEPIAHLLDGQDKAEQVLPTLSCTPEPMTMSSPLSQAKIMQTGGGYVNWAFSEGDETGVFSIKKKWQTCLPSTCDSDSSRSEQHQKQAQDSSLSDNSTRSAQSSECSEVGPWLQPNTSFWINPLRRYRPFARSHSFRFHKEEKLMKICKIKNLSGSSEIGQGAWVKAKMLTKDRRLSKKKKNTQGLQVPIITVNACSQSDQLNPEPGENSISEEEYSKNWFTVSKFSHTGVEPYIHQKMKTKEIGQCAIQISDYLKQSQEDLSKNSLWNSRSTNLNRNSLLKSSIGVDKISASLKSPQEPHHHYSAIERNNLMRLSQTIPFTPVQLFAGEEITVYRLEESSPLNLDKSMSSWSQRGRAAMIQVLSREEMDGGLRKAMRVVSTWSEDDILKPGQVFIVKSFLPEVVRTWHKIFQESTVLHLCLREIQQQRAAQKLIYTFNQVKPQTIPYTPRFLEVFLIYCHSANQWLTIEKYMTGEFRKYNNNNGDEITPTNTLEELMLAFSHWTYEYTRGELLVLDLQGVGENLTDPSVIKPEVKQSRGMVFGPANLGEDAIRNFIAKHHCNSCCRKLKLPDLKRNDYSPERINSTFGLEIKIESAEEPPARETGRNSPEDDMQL
Experiment [9] concerns the target Serine/threonine-protein kinase 38-like (Homo sapiens) (UniProt Q9Y2H1). The experiment can be described thus: Inhibition of NDR2 Lys1 labeling site harbouring KDTGHIYAMKILR in human A-375 cells at 0.05 uM by KiNativ Profiling analysis relative to control. The class given is cell-based.
Experiment [10] has as its target Mitogen-activated protein kinase kinase kinase kinase 1 (Homo sapiens) (UniProt Q92918). Kind of experiment: Inhibition of HPK1 (unknown origin) at 10 uM by Ambit Kinomescan binding assay relative to control; values are per cent of control.
The target in experiment [11] is Serine/threonine-protein kinase RIO2 (Homo sapiens) (UniProt Q9BVS4). The experiment can be described thus: Inhibition of RIOK2 (unknown origin) at 10 uM by Ambit Kinomescan binding assay.
Serine/threonine-protein kinase RIO2 (Homo sapiens), sequence (Q9BVS4 whole entry, looked up): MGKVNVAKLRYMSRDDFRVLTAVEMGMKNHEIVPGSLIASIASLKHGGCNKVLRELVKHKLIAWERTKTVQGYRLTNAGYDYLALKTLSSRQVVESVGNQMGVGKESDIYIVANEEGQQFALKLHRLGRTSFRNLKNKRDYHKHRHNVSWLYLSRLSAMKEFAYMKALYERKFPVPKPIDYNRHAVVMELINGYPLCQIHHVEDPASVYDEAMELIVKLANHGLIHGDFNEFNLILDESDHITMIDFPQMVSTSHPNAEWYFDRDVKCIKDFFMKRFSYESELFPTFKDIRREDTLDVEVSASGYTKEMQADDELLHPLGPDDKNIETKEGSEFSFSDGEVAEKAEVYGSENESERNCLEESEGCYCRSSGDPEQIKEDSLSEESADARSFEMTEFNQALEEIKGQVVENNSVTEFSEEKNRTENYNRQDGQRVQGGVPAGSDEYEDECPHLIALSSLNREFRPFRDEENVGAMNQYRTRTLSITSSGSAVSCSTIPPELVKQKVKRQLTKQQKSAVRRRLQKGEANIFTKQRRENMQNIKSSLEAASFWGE
The target of experiment [12] is Serine/threonine-protein kinase ATR (Homo sapiens) (UniProt Q13535). The experiment can be described thus: Inhibition of ATR ATP labeling site in human A-375 cells at 0.5 uM by KiNativ Profiling analysis relative to control. The class given is cell-based.
Experiment [13] deals with Fibroblast growth factor receptor 4 (Homo sapiens) (UniProt P22455). Kind of experiment: Inhibition of FGFR4 (unknown origin) at 10 uM by Ambit Kinomescan binding assay relative to control.
Experiment [14] has as its target Glycogen synthase kinase-3 beta (Homo sapiens) (UniProt P49841). The experiment can be described thus: Inhibition of GSK3B K2 labeling site in human Huh-7 cells at 1 uM by KiNativ Profiling analysis relative to control. The class given is cell-based.
The subject of experiment [15] is Proto-oncogene tyrosine-protein kinase receptor Ret (Homo sapiens), P07949 [V804L]. The experiment can be described thus: Inhibition of RET V804L mutant (unknown origin) at 10 uM by Ambit Kinomescan binding assay relative to control; values are per cent of control.
For experiment [16], the system named is Fibroblast growth factor receptor 3 (Homo sapiens), P22607 [G697C]. The experiment can be described thus: Inhibition of FGFR3 G697C mutant (unknown origin) at 10 uM by Ambit Kinomescan binding assay relative to control.

We go through three compounds from ChEMBL document CHEMBL5696442, “Discovery of type II inhibitors of TGFβ-activated kinase 1 (TAK1) and mitogen-activated protein kinase kinase kinase kinase 2 (MAP4K2)” (J Med Chem, 2015).

Each structure is given as a SMILES string. Active and inactive are the calls of the source. The calls are words filed in the database; no cut-off is given here.

Megakaryocyte-associated tyrosine-protein kinase (Homo sapiens), sequence (P42679 whole entry): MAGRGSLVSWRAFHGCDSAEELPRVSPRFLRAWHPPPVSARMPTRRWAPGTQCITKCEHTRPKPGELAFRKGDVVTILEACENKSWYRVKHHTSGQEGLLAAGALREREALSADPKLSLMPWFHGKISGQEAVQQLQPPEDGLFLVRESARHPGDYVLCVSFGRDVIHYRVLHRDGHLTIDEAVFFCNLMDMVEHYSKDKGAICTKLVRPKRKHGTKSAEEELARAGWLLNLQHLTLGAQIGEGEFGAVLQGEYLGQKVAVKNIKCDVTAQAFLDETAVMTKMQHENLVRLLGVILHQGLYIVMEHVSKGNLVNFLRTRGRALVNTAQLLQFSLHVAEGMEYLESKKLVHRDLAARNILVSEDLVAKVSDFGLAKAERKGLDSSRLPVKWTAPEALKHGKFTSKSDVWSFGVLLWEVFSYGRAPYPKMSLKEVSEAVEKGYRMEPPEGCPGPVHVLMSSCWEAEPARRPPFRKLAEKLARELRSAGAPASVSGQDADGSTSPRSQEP
Mitogen-activated protein kinase kinase kinase 11 (Homo sapiens), sequence (Q16584 whole entry, looked up): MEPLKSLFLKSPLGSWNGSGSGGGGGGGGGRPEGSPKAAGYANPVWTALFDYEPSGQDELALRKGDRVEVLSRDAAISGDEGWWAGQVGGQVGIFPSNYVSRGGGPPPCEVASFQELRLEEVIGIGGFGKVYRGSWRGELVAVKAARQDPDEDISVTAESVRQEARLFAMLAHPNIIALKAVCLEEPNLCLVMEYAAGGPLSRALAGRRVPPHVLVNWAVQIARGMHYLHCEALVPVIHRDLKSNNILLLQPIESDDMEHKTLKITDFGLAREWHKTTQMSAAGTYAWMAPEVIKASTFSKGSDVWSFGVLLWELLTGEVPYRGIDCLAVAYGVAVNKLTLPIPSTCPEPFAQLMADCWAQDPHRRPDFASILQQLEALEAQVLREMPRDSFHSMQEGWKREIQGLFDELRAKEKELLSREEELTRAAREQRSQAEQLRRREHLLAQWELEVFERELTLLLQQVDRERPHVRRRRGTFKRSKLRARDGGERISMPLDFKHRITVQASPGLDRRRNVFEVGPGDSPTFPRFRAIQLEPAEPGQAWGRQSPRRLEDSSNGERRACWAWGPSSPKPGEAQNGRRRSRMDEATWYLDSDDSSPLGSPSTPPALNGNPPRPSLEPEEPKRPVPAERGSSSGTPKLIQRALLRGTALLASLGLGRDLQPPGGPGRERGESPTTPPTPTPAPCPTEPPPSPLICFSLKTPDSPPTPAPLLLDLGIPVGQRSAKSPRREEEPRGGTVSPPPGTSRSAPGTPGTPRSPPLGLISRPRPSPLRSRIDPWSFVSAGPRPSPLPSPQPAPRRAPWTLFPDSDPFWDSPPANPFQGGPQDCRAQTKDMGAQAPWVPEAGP
Serine/threonine-protein kinase 38-like (Homo sapiens), sequence (Q9Y2H1 2-464 limits assumed): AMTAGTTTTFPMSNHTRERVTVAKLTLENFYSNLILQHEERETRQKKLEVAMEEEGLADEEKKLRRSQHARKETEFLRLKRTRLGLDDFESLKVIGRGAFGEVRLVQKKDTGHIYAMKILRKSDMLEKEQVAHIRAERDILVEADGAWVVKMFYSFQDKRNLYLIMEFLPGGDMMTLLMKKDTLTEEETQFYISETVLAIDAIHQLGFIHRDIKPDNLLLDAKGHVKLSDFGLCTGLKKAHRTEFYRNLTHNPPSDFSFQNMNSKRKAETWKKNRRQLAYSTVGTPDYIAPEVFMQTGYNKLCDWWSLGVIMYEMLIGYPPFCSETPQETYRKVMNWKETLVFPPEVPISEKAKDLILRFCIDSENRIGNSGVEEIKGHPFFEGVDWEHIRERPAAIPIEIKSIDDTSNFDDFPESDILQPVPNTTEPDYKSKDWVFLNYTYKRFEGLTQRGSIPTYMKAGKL
Uncharacterized serine/threonine-protein kinase SBK3 (Homo sapiens), sequence (P0C264 whole entry): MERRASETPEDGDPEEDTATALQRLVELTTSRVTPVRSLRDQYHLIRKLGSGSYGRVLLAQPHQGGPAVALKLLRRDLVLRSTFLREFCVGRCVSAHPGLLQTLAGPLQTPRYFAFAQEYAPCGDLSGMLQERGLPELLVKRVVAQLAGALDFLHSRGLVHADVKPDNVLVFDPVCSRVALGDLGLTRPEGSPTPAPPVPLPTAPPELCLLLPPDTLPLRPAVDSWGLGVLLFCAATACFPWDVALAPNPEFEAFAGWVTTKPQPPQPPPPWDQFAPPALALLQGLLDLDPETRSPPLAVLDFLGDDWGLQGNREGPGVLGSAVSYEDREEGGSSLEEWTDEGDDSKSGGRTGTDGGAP

Consider `CNc1cc(Oc2cc(C(=O)Nc3cc(N4CCN(C)CC4)cc(C(F)(F)F)c3)ccc2C)ncn1`, for which, in experiment [1], the inhibition worked out at 0.7%.
Consider `CCN1CCN(Cc2ccc(NC(=O)c3ccc(C)c(/C=C/c4cnc5[nH]ccc5c4OC)c3)cc2C(F)(F)F)CC1`, for which the inhibition in [2] is -9.9%; in experiment [4], 14.1%; in experiment [5], 45%; in experiment [6] it was 11.4%; in [7], 70%; in experiment [8], 100%. In addition, the inhibition in experiment [9] is 6%. The residual activity in experiment [3] came to 60%.
`CCN1CCN(Cc2ccc(NC(=O)c3ccc(C)c(Oc4ccnc5[nH]ccc45)c3)cc2C(F)(F)F)CC1` registered a % of control in experiment [10] of 1.6%. For the same compound, the inhibition result in [11] was “inactive”. Moreover, the inhibition in experiment [12] is 5.1%; in [13] it was 0.45%; in [14] it was 2.9%; in experiment [16], 16%. The compound also showed a residual activity in experiment [15] of 0.8%.
